Reference: patent US9908843B2, “Benzamide derivatives useful in the treatment of muscular disorders and pain and for controlling spasticity and tremors” (Canbex Therapeutics Limited, priority 2013, dated 2018)
Where two headings read alike, the source gives them in different places.

Experiments:
[1] = test system: mouse vas deferens (CB1 knock-out); assay: VSN-16R dose response curve in mouse vas deferens, CB1 knock-out; format: cell-based
[2] = test system: mouse vas deferens (CB2 knock-out); assay: VSN-16R dose response curve in mouse vas deferens, CB2 knock-out; format: cell-based
[3] = test system: mouse vas deferens; assay: Inhibition of electrically-evoked contractions of the mouse isolated vas deferens; format: cell-based; conditions: for potency (EC50) greater than VSN-16R: vas deferens mouse assay, relative to VSN-16R
Experimental: Compounds were evaluated using a mouse vas deferens preparation [Ward S, Mastriani D, Casiano F and Arnold R (1990) J Pharmacol Exp Ther 255:1230-1239]. The mouse vas deferens isolated tissue preparation is used as an in vitro bioassay to assess the actions of compounds on neurotransmission. Electrically-evoked contractions are induced in the preparation and compounds which affect neurotransmission will inhibit these contractions in a concentration related manner. […] CB1 agonists inhibit electrically-evoked contractions.
Vasa deferentia were obtained from albino MF1 mice weighing 31-59 g. The tissues were mounted vertically in 4 ml organ baths. They were then subjected to electrical stimulation of progressively greater intensity, followed by an equilibration procedure in which they were exposed to alternate periods of stimulation (2 min) and rest (10 min) until contractions with consistent amplitudes were obtained. These contractions were monophasic and isometric, and were evoked by 0.5 s trains of pulses of 110% maximal voltage (train frequency 0.1 Hz; pulse frequency 5 Hz; pulse duration 0.5 ms).
All drug additions were made to the organ baths after the equilibration period and there was no washout between these additions. Potential antagonist or its vehicle were added to the preparation. This was followed 28 min later by a 2-min period of electrical stimulation, at the end of which the lowest of a series of concentrations of the twitch inhibitors was applied. After a period of rest, the tissues were electrically stimulated for 2 min and then subjected to a further addition of twitch inhibitor. This cycle of drug addition, rest and 2 min stimulation was repeated so as to construct cumulative concentration—response curves. Only one concentration—response curve was constructed per tissue.
Values for EC50, maximal effect (Emax) and the s.e.m. or 95% confidence limits of these values have been calculated by nonlinear regression analysis using the equation for a sigmoid concentration—response curve (GraphPad Prism).

[4] = test system: spasticity in CREAE mice; conditions: cited from earlier work
[5] = Mus musculus, Table 2, read-out: EC50
[6] = Mus musculus, Table 2, read-out: Emax (%)

SMILES	EC50 [3, 5] [nM]	Emax [3, 6] [%]	further results
C[C@H](CO)NC(=O)c1cccc(/C=C\CCCC(=O)N(C)C)c1 [VSN16R, reference compound]			EC50 [1]: 12.7 nM; EC50 [2]: 17.6 nM; Emax ([3]; Mus musculus): 40.7%; EC50 ([3]; Mus musculus, Table 1): 10.4 nM; EC50 ([3]; Mus musculus, Table 2): 0.722 nM; Emax ([3]; Mus musculus, read-out: Emax (%) ± 95% confidence limits): 56%; EC50 ([3]; Mus musculus, read-out: pEC50 ± SEM, Table 1 (converted)): 10.5 nM; EC50 ([3]; Mus musculus, wild type, FIG. 3): 10.4 nM
CC(CO)NC(=O)c1cccc(/C=C\CCCC(=O)N(C)C)c1 (stereo not shown) [VSN16]			effect on spasticity [4]: marked effect on spasticity
Cc1c(C(=O)c2cccc3ccccc23)c2cccc3c2n1[C@H](CN1CCOCC1)CO3 [WIN55212-2, reference compound]			pEC50 ± SEM ([3]; Table 1): 8.41 ± 0.237; Emax (%) ± 95% confidence limits ([3]; Table 1, inhibition of electrically-evoked twitch response): 62 (52-72) %; EC50 ([3]; Table 1, read-out: EC50): 3.86 nM
C[C@@H](NC(=O)c1cccc(/C=C\CCCC(=O)N(C)C)c1)C(=O)O [[1], (Z)-(3-(6-(dimethylamino)-6-oxohex-1-en-1-yl)benzoyl)-D-alanine]	0.00655	64	EC50 ([3]; Mus musculus, Table 1, read-out: EC50): 1.42 nM; EC50 ([3]; Mus musculus, Table 1, read-out: pEC50 ± SEM (converted)): 1.41 nM; Emax ([3]; Mus musculus, Table 1, inhibition of electrically-evoked twitch response, read-out: Emax (%) ± 95% confidence limits): 46%; potency (EC50) greater than VSN-16R [3]: 10 fold; potency (EC50) greater than VSN-16R ([3]; listed as VSN44): ten-fold greater; potency (EC50) greater than VSN-16R ([3]; listed as VSN-44): ≥ 10 fold
CN(C)C(=O)CCC/C=C\c1cccc(C(=O)N[C@H](CO)C(=O)O)c1 [[14], (R,Z)-2-(3-(6-(dimethylamino)-6-oxohex-1-en-1-yl)benzamido)-3-hydroxypropanoic acid]	0.124	58.5	
CN(C)C(=O)CCC/C=C\c1cccc(C(=O)NCC(=O)O)c1 [[15], (Z)-2-(3-(6-(dimethylamino)-6-oxohex-1-en-1-yl)benzamido)acetic acid]	0.102	53.7	
CN(C)C(=O)CCC/C=C\c1cccc(C(=O)N[C@H](Cc2ccccc2)C(=O)O)c1 [[16], (R,Z)-2-(3-(6-(dimethylamino)-6-oxohex-1-en-1-yl)benzamido)-3-phenylpropanoic acid]	0.00604	73.9	
CN(C)C(=O)CCC/C=C\c1cccc(C(=O)N[C@@H](Cc2ccccc2)C(=O)O)c1 [[17], (S,Z)-2-(3-(6-(dimethylamino)-6-oxohex-1-en-1-yl)benzamido)-3-phenylpropanoic acid]	0.14	56.3	
CN(C)C(=O)CCC/C=C\c1cccc(C(=O)N[C@@H](CO)C(=O)O)c1 [[18], (S,Z)-2-(3-(6-(dimethylamino)-6-oxohex-1-en-1-yl)benzamido)-3-hydroxypropanoic acid]	0.382	62.7	
COC(=O)[C@@H](C)NC(=O)c1cccc(C#CCCCC(=O)N2CCCC2)c1 [[20], (R)-methyl 2-(3-(6-oxo-6-(pyrrolidin-1-yl)hex-1-yn-1-yl)benzamido)propanoate]	0.466	44.7	
COC(=O)[C@@H](C)NC(=O)c1cccc(/C=C\CCCC(=O)N2CCCC2)c1 [[21], (R,Z)-methyl 2-(3-(6-oxo-6-(pyrrolidin-1-yl)hex-1-en-1-yl)benzamido)propanoate]	0.162	58.3	
COC(=O)CNC(=O)c1cccc(C#CCCCC(=O)N(C)C)c1 [[22], methyl 2-(3-(6-(dimethylamino)-6-oxohex-1-yn-1-yl)benzamido)acetate]	0.112	52.9	
COC(=O)CNC(=O)c1cccc(/C=C\CCCC(=O)N(C)C)c1 [[23], (Z)-methyl 2-(3-(6-(dimethylamino)-6-oxohex-1-en-1-yl)benzamido)acetate]	0.0225	59.2	
COC(=O)[C@H](CO)NC(=O)c1cccc(C#CCCCC(=O)N(C)C)c1 [[24], (S)-methyl 2-(3-(6-(dimethylamino)-6-oxohex-1-yn-1-yl)benzamido)-3-hydroxypropanoate]	0.412	51.5	
COC(=O)[C@H](CO)NC(=O)c1cccc(/C=C\CCCC(=O)N(C)C)c1 [[25], (S,Z)-methyl 2-(3-(6-(dimethylamino)-6-oxohex-1-en-1-yl)benzamido)-3-hydroxypropanoate]	0.359	52.9	
COC(=O)[C@H](Cc1ccccc1)NC(=O)c1cccc(/C=C\CCCC(=O)N(C)C)c1 [[27], (S,Z)-methyl 2-(3-(6-(dimethylamino)-6-oxohex-1-en-1-yl)benzamido)-3-phenylpropanoate]	0.0908	55.3	
COC(=O)[C@@H](CO)NC(=O)c1cccc(/C=C\CCCC(=O)N(C)C)c1 [[29], (R,Z)-methyl 2-(3-(6-(dimethylamino)-6-oxohex-1-en-1-yl)benzamido)-3-hydroxypropanoate]	0.0456	62	
COC(=O)[C@@H](Cc1ccccc1)NC(=O)c1cccc(C#CCCCC(=O)N(C)C)c1 [[30], (R)-methyl 2-(3-(6-(dimethylamino)-6-oxohex-1-yn-1-yl)benzamido)-3-phenylpropanoate]	0.0614	46.3	
COC(=O)[C@@H](Cc1ccccc1)NC(=O)c1cccc(/C=C\CCCC(=O)N(C)C)c1 [[31], (R,Z)-methyl 2-(3-(6-(dimethylamino)-6-oxohex-1-en-1-yl)benzamido)-3-phenylpropanoate]	0.0122	47	
COC(=O)[C@H](C)NC(=O)c1cccc(C#CCCCC(=O)N(C)C)c1 [[32], (S)-methyl 2-(3-(6-(dimethylamino)-6-oxohex-1-yn-1-yl)benzamido)propanoate]	0.0131	54.6	
